Experimental data reported in US8841285B2, “Potent immunosuppressive agents, derivatives and uses” (priority 2002, dated 2014).
pIC50: −log10 of the molar value.

Assays:
RKO cells = experiment: cell proliferation assay, RKO cells; assay type: cell-based; details: Homo sapiens
Protocol: Cell Proliferation Assay. 1×10^5 of indicated cells in each well of a 96-well plate were treated with indicated compounds for 24 h followed by addition of 0.11 μCi of [^3H]-thymidine (6.7 Ci/mmol) per well for 6 h, followed by harvesting to GF/C filtermats using a cell harvester. Filtermats were air-dried and scintillation counted. IC50s were determined from quadruplicate data readings and curve-fitting analysis.

[1] = tested on: cap-dependent translation; experiment: in vitro translation in RRL, bicistronic reporter, cap-dependent cistron; assay type: biochemical, rabbit; details: HCV IRES bicistronic reporter
Protocol: In vitro Translation and Transcription. pSP/(CAG)33/FF/HCV/Ren·pA51 and pKS/FF/EMC/Ren were linearized by BamHI, then purified by phenol:chloroform extraction and ethanol precipitation, and dissolved in water. pSP/(CAG)33/FF/HCV/Ren·A51 and pKS/FF/EMC/Ren were individually transcribed using a large scale RNA production system in the presence of m7Gppp cap analog followed by incubation with DNase as described by the manufacturer. Resulting RNA was purified using a kit as described by the manufacturer. Translation was performed using a rabbit reticulocyte lysate system as per instructions. Briefly, 200 ng of purified RNA was combined in a 20 μl reaction containing 10 μl RRL, 0.2 μl each of minus Met and minus Leu amino acid mixtures, 70 mM KCl, 2 mM DTT, 1× translation buffer, and 10 units of RNasin. Compounds or DMSO were added to a final DMSO concentration of 2%. Reactions were incubated at 30° C. for 1.5 h, then 5 μl of the reaction mixture was assayed for luciferase activity as per instructions of luciferas reporter assay system.

293T cells = experiment: cellular polyribosome profiles; assay type: cell-based; details: 30 min treatment
Protocol: Cellular polyribosome profiles. 293T cells were treated as indicated for 30 min. Cells were washed twice with ice-cold PBS and pipetted for 5 min in 500 μl of chilled TMK100 buffer (20 mM Tris-HCl pH 7.4, 5 mM MgCl2 100 mM KCl, 2 mM DTT, 1% Triton X-100 and 100 U/ml RNAsin in DEPC water). After clearing at 10,000×g (10 min) at 4° C., the supernatant (S10) was layered onto 11 ml, 15-45% linear sucrose gradient containing 20 mM HEPES pH 7.4, 100 mM KCl, 5 mM MgCl2 and 2 mM DTT. Ultracentrifugation at 40,000 rpm for 1.5 h at 4° C. was performed in a suitable rotor. Fractions were collected from the top of the gradient by injection of Flurinert FC-40 from bottom of centrifuge tube. Gradient profiles were monitored at 254 nm. For immunoblotting, 7 mg of total protein were processed as described above, followed by collection of 500 μl fractions were collected from the top. 100 μl aliquots of each were boiled in SDS sample buffer, followed by SDS-PAGE and immunoblotting.

HeLa cells = assay type: cell-based

| Compound | pIC50 (RKO cells) | inhibition of cap- versus HCV IRES-dependent translation [1] | effect on polysome profile (293T cells) | stress granule formation (HeLa cells) |
| --- | --- | --- | --- | --- |
| CC(/C=C/C(C)=C/[C@@H]1Cc2nc(cs2)[C@@H](C)CC(NCC(=O)NCCOCCOCCNC(=O)CCCC[C@@H]2SCC3NC(=O)NC32)CC(=O)O[C@@H](C)C/C(C)=C/C=C\C(=O)O1)=C\CN(C)C (some centres unmarked) [B-PatA, Biotin-PEO-Pateamine A] | > 7.82 |  |  |  |
| C[C@@H]1C[C@@H]([C@H](O)CC2CC(=O)NC(=O)C2)C(=O)[C@@H](C)C1 [CHX, cycloheximide] |  | nearly equal inhibition | did not perturb the sucrose gradient profile | did not induce stress granule formation |
| arsenite |  |  |  | eIF4B co-localized with TIA-1 in stress granules |
